Patent US9387248B2, “Pharmaceutical composition comprising antibody composition which specifically binds to CCR4” (KYOWA HAKKO KIRIN CO., LTD, priority 2009, dated 2016)

B1: KM8760: human CDR-grafted anti-CCR4 antibody lacking fucose modification, VH SEQ ID NO:11, VL SEQ ID NO:12 (antibody, V domains shown)
VH: EVQLVESGGDLVQPGRSLRLSCAASGFIFSNYGMSWVRQAPGKGLEWVATISSASTYSYYPDSVKGRFTISRDNAKNSLYLQMNSLRVEDTALYYCGRHSDGNFAFGYWGQGTLVTVSS
VL: DVLMTQSPLSLPVTPGEPASISCRSSRNIVHINGDTYLEWYLQKPGQSPQLLIYKVSNRFSGVPDRFSGSGSGTDFTLKISRVEAEDVGVYYCFQGSLLPWTFGQGTKVEIK
modifications: afucosylated

Legend:
[1] = tested on: HH cells grafted into SCID mice; assay: Antitumor effect of anti-CCR4 antibody and Lenalidomide in combination (1), HH cells grafted into SCID mice; assay type: in vivo, SCID mouse; details: KM8760 20 mg/kg iv Day 0, 7, 14, Lenalidomide 1 mg/kg ip daily Day 0-13
Description: (§1) HH cells (human multiple myeloma cell; ATCC No: CRL-2105) were suspended in Dulbecco's phosphate buffered saline without calcium chloride and magnesium chloride (PBS, manufactured by Invitrogen) at a density of 1×10^7 cells/mL, and 100 μL of the suspension was transplanted into the ventral skin of SCID mouse (obtained by Nippon Crea, male). Seven days after the cell transplantation, a diameter of a tumor was measured with calipers, and a tumor volume was calculated using the following formula. Tumor volume=short diameter×short diameter×long diameter×0.5 (Formula)
Individuals having the tumor volume within the range of 41 to 93 mm^3 were selected, and grouped such that the average of tumor volume was to be equal. Then, the following administration groups A to D were arranged. The day of grouping was defined as Day 0.
(§2) A. Negative control group: Administration of medium
B. Group administering KM8760 alone: 20 mg/kg was administered on Day 0, Day 7 and Day 14.
(§3) C. Group administering Lenalidomide alone: 1 mg/kg was administered everyday on Day 0 to Day 13.
(§4) D. Group administering KM8760 and Lenalidomide in combination: the respective agent was administered on the same schedule and at the same dose as each group administering respective agent alone.
(§5) The experiment was conducted with groups each consisting of eight mice. KM8760 was diluted with saline (manufactured by Otsuka Pharmaceutical), and the obtained solution was administered from the tail vein. Lenalidomide was suspended with saline containing 0.5% of methylcellulose and the obtained solution was intraperitoneally administered. The tumor volume was measured chronologically. The antitumor effect was evaluated by comparing the average values of values (V/V0) obtained by dividing the tumor volume on each day of measurement by the tumor volume on Day 0 in each group.
The results of the test for significant differences (One-way ANOVA, Dunnett test) compared with the negative control group are shown in Table 1. In addition, when p<0.05, the value is considered to show a significant difference and is shown with * in the table.
(§6) In the table, * means the case where the actual value of T/C is smaller than the theoretical value.

[2] = tested on: HH cells grafted into SCID mice; assay: Antitumor effect of anti-CCR4 antibody and Lenalidomide in combination (2), HH cells grafted into SCID mice; assay type: in vivo, SCID mouse; details: KM8760 20 mg/kg iv Day 0, 7, 14, 21, Lenalidomide 1 mg/kg ip daily Day 0-13
Description: as §1, with “cell line;” for “cell;”, “2×10^8” for “1×10^7”
Individuals having the tumor volume within the range of 51 to 79 mm^3 were selected, and grouped such that the average of tumor volume was to be equal. Then, the following administration groups A to D were arranged. The day of grouping was defined as Day 0.
as §2
B. Group administering KM8760 alone: 20 mg/kg was administered on Day 0, Day 7, Day 14 and Day 21.
as §3, §4
as §5, with “consisting of twelve mice. KM8760” for “consisting of eight mice. KM8760”, “and the diluent was intraperitoneally” for “and the obtained solution was intraperitoneally”
The result of a test for a significant difference (Steel-Dwass test) between each group administering the respective agent alone and combination administration group is shown in Table 3. In the table, na means not applicable. In addition, when p<0.05, the value is considered to show a significant difference and is shown with * in the table.
as §6

HH cells = assay: ADCC activity of KM8760 with Lenalidomide-treated hPBMC effector cells, 51Cr release; assay type: cell-based, human; details: hPBMC effector cells treated with 0.1, 1 or 10 μmol/L Lenalidomide for one, three or five days; effector:target 25:1; KM8760 0.01, 0.1, 1 μg/mL
Description: Mononuclear cells (hPBMC) were obtained from peripheral blood from healthy adults by density-gradient centrifugation using Ficoll-paque (manufactured by GE health care). The obtained hPBMC was suspended in RPMI1640 medium containing 10% of FBS and 1% of penicillin/streptomycin solution (manufactured by Nacalai Tesque) (hereinafter referred to as medium). Lenalidomide was added to the suspension to give a final concentration of […]. The obtained suspension was incubated at 37° C. for one, three or five days. Thereafter incubation, hPBMC was washed one time with the medium, and the washed cells were adjusted to give a concentration of about 5×10^6 cells/mL using the medium. The obtained cells were used as effector cells.
After 1×10^6 of HH cells suspended in about 100 μL and 20 μL of ^51Cr solution (NEZ030, manufactured by Perkin-Elmer) were mixed, the mixed solution was incubated at 37° C. for 2 to 4 hours so that HH cells were radiolabeled. […]
On a 96-well U-bottom plate, 50 μL of each of effector cells, target cells and antibody solution was mixed (effector cell:target cell=25:1, final concentration of antibody=0.01, 0.1, or 1 μg/mL) and incubated at 37° C. for 4 hours. […] Herein, CPM was measured using a liquid scintillation counter for microplate (TopCount, manufactured by Perkin-Elmer). […] The rate of cytotoxicity (Lysis %) was calculated using the following formula. […]

Row | Molecule | T/C (V/V0 of group divided by V/V0 of negative control group) ([1]; Day 0) | T/C (V/V0 of group divided by V/V0 of negative control group) ([1]; Day 4) | T/C (V/V0 of group divided by V/V0 of negative control group) ([1]; Day 7) | T/C (V/V0 of group divided by V/V0 of negative control group) ([1]; Day 10) | T/C (V/V0 of group divided by V/V0 of negative control group) ([1]; Day 14) | T/C (V/V0 of group divided by V/V0 of negative control group) ([1]; Day 17) | T/C (V/V0 of group divided by V/V0 of negative control group) ([1]; Day 21) | T/C (V/V0 of group divided by V/V0 of negative control group) ([2]; Day 0) | T/C (V/V0 of group divided by V/V0 of negative control group) ([2]; Day 4) | T/C (V/V0 of group divided by V/V0 of negative control group) ([2]; Day 7) | T/C (V/V0 of group divided by V/V0 of negative control group) ([2]; Day 10) | T/C (V/V0 of group divided by V/V0 of negative control group) ([2]; Day 14) | T/C (V/V0 of group divided by V/V0 of negative control group) ([2]; Day 19) | T/C (V/V0 of group divided by V/V0 of negative control group) ([2]; Day 21) | T/C (V/V0 of group divided by V/V0 of negative control group) ([2]; Day 24) | T/C (V/V0 of group divided by V/V0 of negative control group) ([2]; Day 28) | ADCC activity of KM8760 (cytotoxicity rate, Lysis %, FIG. 3) (HH cells)
1 | Nc1cccc2c1CN(C1CCC(=O)NC1=O)C2=O (stereo not drawn) [Lenalidomide] | 1.000 | 1.041 | 0.918 | 0.948 | 0.875 | 0.750 | 0.766 | 1.00 | 1.05 | 0.92 | 0.93 | 0.75 | 0.90 | 0.88 | 0.95 | 0.95 | clearly enhanced
2 | B1 | 1.000 | 0.910 | 0.764 | 0.750 | 0.691 | 0.652 | 0.639 | 1.00 | 0.89 | 0.71 | 0.62 | 0.54 | 0.54 | 0.54 | 0.55 | 0.53 | –
